Data from patent US9980943B2, “Methods of treating muscular dystrophy” (BOARD OF REGENTS OF THE NEVADA SYSTEM OF HIGHER EDUCATION, …, priority 2013, dated 2018).

Experiments:
Format in all cases: cell-based, mouse
[1] = system: α7 integrin (LacZ reporter in α7+/LacZ myotubes); assay: Myotube α7 integrin FDG assay (Burkin assay in myotubes, 96-well); conditions: myotubes; for fold induction at 0.5 µM / fold induction at 1 µM / fold induction at 5 µM / fold induction at 10 µM / fold induction at 20 µM / fold induction at 40 µM: Mus musculus, Myotube, read-out: Burkin Assay in Myotubes (signal relative to DMSO)
[2] = system: β-galactosidase in CMV-LacZ C2C12 myotubes; assay: CMV-LacZ secondary screen in C2C12 myotubes (β-Gal stabilizing assay); conditions: for CMV-LACZ in Myotubes (β-galactosidase activity relative to DMSO): CMV-LacZ C2C12 myotubes, 96-well format
Outline: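 First, C2C12 myoblasts were transfected with a linearized CMV-LACZ vector and clonal lines selected by FDG β-gal assay. Then cells were exposed to compounds at 0.5, 1, 5, 10, 20 and 40 μM in 96-well format, two replicates each, and β-gal measured.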

[3] = system: α7 integrin (LacZ reporter in α7βgal+/− myoblasts); assay: Myoblast α7+/LacZ integrin FDG assay (Burkin assay in myoblasts, 96-well); conditions: α7+/LacZ myoblasts, 96-well; for fold induction at 0.5 µM / fold induction at 1 µM / fold induction at 5 µM / fold induction at 10 µM / fold induction at 20 µM / fold induction at 40 µM: Mus musculus, Myoblast, 48 h, read-out: Burkin Assay in Myoblasts, value relative to DMSO
[4] = 5 uM, C2C12 CMV-LacZ myotubes, fold relative to DMSO
[5] = 10 uM, C2C12 CMV-LacZ myotubes, fold relative to DMSO
[6] = 20 uM, C2C12 CMV-LacZ myotubes, fold relative to DMSO
[7] = 40 uM, C2C12 CMV-LacZ myotubes, fold relative to DMSO

Row | Structure (SMILES) | Burkin Assay in Myotubes (signal relative to DMSO) ([1]; 0.5 uM) | Burkin Assay in Myotubes (signal relative to DMSO) ([1]; 1 uM) | Burkin Assay in Myotubes (signal relative to DMSO) ([1]; 5 uM) | Burkin Assay in Myotubes (signal relative to DMSO) ([1]; 10 uM) | Burkin Assay in Myotubes (signal relative to DMSO) ([1]; 20 uM) | Burkin Assay in Myotubes (signal relative to DMSO) ([1]; 40 uM) | CMV-LACZ in Myotubes (β-galactosidase activity relative to DMSO) ([2]; 5 uM) | CMV-LACZ in Myotubes (β-galactosidase activity relative to DMSO) ([2]; 10 uM) | CMV-LACZ in Myotubes (β-galactosidase activity relative to DMSO) ([2]; 20 uM) | CMV-LACZ in Myotubes (β-galactosidase activity relative to DMSO) ([2]; 40 uM) | Burkin Assay in Myoblasts, value relative to DMSO ([3]; 0.5 uM) | Burkin Assay in Myoblasts, value relative to DMSO ([3]; 1 uM) | Burkin Assay in Myoblasts, value relative to DMSO ([3]; 5 uM) | Burkin Assay in Myoblasts, value relative to DMSO ([3]; 10 uM) | Burkin Assay in Myoblasts, value relative to DMSO ([3]; 20 uM) | Burkin Assay in Myoblasts, value relative to DMSO ([3]; 40 uM) | CMV-LACZ in Myotubes, signal relative to DMSO [2, 4] | CMV-LACZ in Myotubes, signal relative to DMSO [2, 5] | CMV-LACZ in Myotubes, signal relative to DMSO [2, 6] | CMV-LACZ in Myotubes, signal relative to DMSO [2, 7] | also measured
1 | O=Cc1cnc(N2CCCCC2)s1 [MLS000721730-01] | 0.9195 | 1.064 | 0.8563 | 1.025 | 0.877 | 1.071 | 0.8504 | 0.9207 | 0.9311 | 1.031 | 0.8377 | 0.8197 | 0.8157 | 0.8824 | 0.827 | 0.9342 |  |  |  |  | 
2 | COc1cc(CNCc2ccc(C(=O)O)cc2)ccc1OCc1ccc(F)cc1.Cl [MLS001216405-01] | 1.128 | 0.9927 | 1.124 | 0.9642 | 0.9387 | 0.8706 |  |  |  |  | 1.132 | 0.9785 | 0.9945 | 0.9208 | 0.9202 | 0.7667 | 0.9192 | 0.8008 | 1.345 | 1.08 | 
3 | CCOc1ccc(-n2c(C)c(C(=O)O)c3cc(OC)ccc32)cc1 [MLS001194551-01] | 1.0169 | 1.01 | 1.043 | 1.094 | 1.209 | 1.281 |  |  |  |  | 1.096 | 1.205 | 1.115 | 1.297 | 1.176 | 1.392 | 0.8273 | 0.9459 | 1.047 | 0.7809 | 
4 | COc1ccccc1NC(=O)CCCc1c[nH]c2ccccc12 [MLS000334464-01] |  |  |  |  |  |  |  |  |  |  |  |  |  |  |  |  |  |  |  |  | fold induction at 0.5 µM ([1]; 0.5 uM): 0.986; fold induction at 1 µM ([1]; 1 uM): 0.88; fold induction at 5 µM ([1]; 5 uM): 1; fold induction at 10 µM ([1]; 10 uM): 0.992; fold induction at 20 µM ([1]; 20 uM): 1.13; fold induction at 40 µM ([1]; 40 uM): 0.666; fold induction at 5 µM ([2]; Mus musculus, C2C12, read-out: CMV-LACZ in Myotubes, signal relative to DMSO, 5 uM, C2C12 CMV-LacZ myotubes, fold relative to DMSO): 1.3; fold induction at 10 µM ([2]; Mus musculus, C2C12, read-out: CMV-LACZ in Myotubes, signal relative to DMSO, 10 uM, C2C12 CMV-LacZ myotubes, fold relative to DMSO): 1.08; fold induction at 20 µM ([2]; Mus musculus, C2C12, read-out: CMV-LACZ in Myotubes, signal relative to DMSO, 20 uM, C2C12 CMV-LacZ myotubes, fold relative to DMSO): 0.988; fold induction at 40 µM ([2]; Mus musculus, C2C12, read-out: CMV-LACZ in Myotubes, signal relative to DMSO, 40 uM, C2C12 CMV-LacZ myotubes, fold relative to DMSO): 0.964; fold induction at 0.5 µM ([3]; 0.5 uM): 1.13; fold induction at 1 µM ([3]; 1 uM): 1.11; fold induction at 5 µM ([3]; 5 uM): 1.18; fold induction at 10 µM ([3]; 10 uM): 1.14; fold induction at 20 µM ([3]; 20 uM): 0.896; fold induction at 40 µM ([3]; 40 uM): 1.08
5 | CC(=O)Nc1c(-c2ccc(Cl)cc2)c(=O)c2ccccc2n1C [MLS001214461-01] | 1.207 | 0.9586 | 1.072 | 0.9457 | 1.087 | 0.8844 |  |  |  |  | 1.064 | 0.9241 | 0.8964 | 0.8123 | 0.8472 | 0.767 | 0.8137 | 0.9363 | 0.9167 | 0.9566 | 
6 | C/C(=N\Nc1nncc2ccccc12)c1cccc(OC(F)F)c1 [MLS001175556-01] | 0.949 | 1.028 | 1.1 | 0.9013 | 0.901 | 0.7514 | 1.113 | 1.053 | 0.9158 | 1.103 | 0.92 | 0.8625 | 0.9202 | 0.8856 | 0.8956 | 0.8018 |  |  |  |  | 
7 | O=c1[nH]c(C2CCCN(S(=O)(=O)c3ccccc3)C2)nc2c1nnn2Cc1cccc(Cl)c1 (stereo not drawn) [MLS001217286-01] | 0.7617 | 0.9911 | 1.193 | 1.219 | 1.095 | 0.5964 | 0.9599 | 1.227 | 0.3991 | 0.3604 | 0.7428 | 0.8506 | 0.7671 | 0.8273 | 1.006 | 1.068 |  |  |  |  | 
8 | CCOc1ccc(NC(=O)CN2C(=O)NC(CCSC)C2=O)cc1 (stereo not drawn) [MLS000772430-01] |  |  |  |  |  |  | 0.8183 | 0.9094 | 0.8956 | 1.037 |  |  |  |  |  |  |  |  |  |  | fold induction at 0.5 µM ([1]; 0.5 uM): 1.03; fold induction at 1 µM ([1]; 1 uM): 1.28; fold induction at 5 µM ([1]; 5 uM): 1.04; fold induction at 10 µM ([1]; 10 uM): 1.25; fold induction at 20 µM ([1]; 20 uM): 1.26; fold induction at 40 µM ([1]; 40 uM): 1.05; fold induction at 0.5 µM ([3]; 0.5 uM): 0.973; fold induction at 1 µM ([3]; 1 uM): 0.936; fold induction at 5 µM ([3]; 5 uM): 1.01; fold induction at 10 µM ([3]; 10 uM): 1.05; fold induction at 20 µM ([3]; 20 uM): 0.881; fold induction at 40 µM ([3]; 40 uM): 0.896
9 | Cc1cccn2c(=O)c3cc(C(=O)NC4CCCCC4)n(C)c3nc12 [MLS001117351-01] |  |  |  |  |  |  |  |  |  |  |  |  |  |  |  |  | 1.016 | 1.088 | 1.1481 | 0.8952 | Burkin Assay in Myotubes, α7 integrin LacZ reporter signal relative to DMSO ([1]; 0.5 uM): 1.025; Burkin Assay in Myotubes, α7 integrin LacZ reporter signal relative to DMSO ([1]; 1 uM): 0.9924; Burkin Assay in Myotubes, α7 integrin LacZ reporter signal relative to DMSO ([1]; 5 uM): 0.8315; Burkin Assay in Myotubes, α7 integrin LacZ reporter signal relative to DMSO ([1]; 10 uM): 0.9463; Burkin Assay in Myotubes, α7 integrin LacZ reporter signal relative to DMSO ([1]; 20 uM): 0.7669; Burkin Assay in Myotubes, α7 integrin LacZ reporter signal relative to DMSO ([1]; 40 uM): 0.6986; Burkin Assay in Myoblasts, signal relative to DMSO ([3]; 0.5 uM): 1.103; Burkin Assay in Myoblasts, signal relative to DMSO ([3]; 1 uM): 1.105; Burkin Assay in Myoblasts, signal relative to DMSO ([3]; 5 uM): 0.7718; Burkin Assay in Myoblasts, signal relative to DMSO ([3]; 10 uM): 0.7445; Burkin Assay in Myoblasts, signal relative to DMSO ([3]; 20 uM): 0.7137; Burkin Assay in Myoblasts, signal relative to DMSO ([3]; 40 uM): 0.4323
